The values that follow come from patent publication US7220744B2, “Monocyclic substituted phenyl methanones” (Hoffman-La Roche Inc., priority 2005, dated 2007).

This assay has as its target T1, mGlyT-1b (Mus musculus, UniProt P28571).
T1 construct: host or cells: Flp-in-CHO cells (vendor and catalogue number are those of the host cell line)
T1 sequence (P28571 1-651 isoform P28571-2): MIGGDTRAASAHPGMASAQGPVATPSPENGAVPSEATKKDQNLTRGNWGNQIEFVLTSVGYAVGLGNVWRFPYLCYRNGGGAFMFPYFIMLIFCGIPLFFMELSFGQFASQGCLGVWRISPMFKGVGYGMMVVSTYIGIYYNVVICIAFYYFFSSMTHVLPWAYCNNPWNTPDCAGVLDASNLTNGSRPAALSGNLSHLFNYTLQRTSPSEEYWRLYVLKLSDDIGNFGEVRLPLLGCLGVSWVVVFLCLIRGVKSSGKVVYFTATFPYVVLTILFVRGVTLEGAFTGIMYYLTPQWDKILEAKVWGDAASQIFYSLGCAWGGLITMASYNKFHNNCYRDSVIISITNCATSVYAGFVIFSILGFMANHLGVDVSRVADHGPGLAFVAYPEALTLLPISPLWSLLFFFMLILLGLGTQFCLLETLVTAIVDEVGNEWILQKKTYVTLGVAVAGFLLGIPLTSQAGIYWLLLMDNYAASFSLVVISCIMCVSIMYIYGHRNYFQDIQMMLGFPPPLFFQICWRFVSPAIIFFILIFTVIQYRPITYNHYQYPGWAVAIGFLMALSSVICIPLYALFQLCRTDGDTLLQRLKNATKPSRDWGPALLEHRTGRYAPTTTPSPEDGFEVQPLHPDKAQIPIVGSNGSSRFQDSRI
Briefly: Glycine Uptake Inhibition Assay (mGlyT-1b). It is filed as cell-based. To be noted: inhibition of [3H]-glycine uptake in Flp-in-CHO cells transfected with mGlyT-1b cDNA; 20 min preincubation at 22° C.; read-out: IC50 (μM) at GlyT-1. Here is the method:
DMEM complete medium: Nutrient mixture F-12 (Gibco Life-technologies), fetal bovine serum (FBS) 5%, (Gibco life technologies), Penicillin/Streptomycin 1% (Gibco life technologies), Hygromycin 0.6 mg/ml (Gibco life technologies), Glutamine 1 mM Gibco life technologies)
Uptake buffer (UB): 150 mM NaCl, 10 mM Hepes-Tris, pH 7.4, 1 mM CaCl2, 2.5 mM KCl, 2.5 mM MgSO4, 10 mM (+) D-glucose.
Flp-in™-CHO (Invitrogen Cat n° R758-07) cells stably transfected with mGlyT1b cDNA.
Glycine Uptake Inhibition Assay (mGlyT-1b)
On day 1 mammalian cells, (Flp-in™-CHO), transfected with mGlyT-1b cDNA, were plated at the density of 40,000 cells/well in complete F-12 medium, without hygromycin in 96-well culture plates. On day 2, the medium was aspirated and the cells were washed twice with uptake buffer (UB). The cells were then incubated for 20 min at 22° C. with either (i) no potential competitor, (ii) 10 mM non-radioactive glycine, (iii) a concentration of a potential inhibitor. A range of concentrations of the potential inhibitor was used to generate data for calculating the concentration of inhibitor resulting in 50% of the effect (e.g. IC50, the concentration of the competitor inhibiting glycine uptake of 50%). A solution was then immediately added containing [^3H]-glycine 60 nM (11–16 Ci/mmol) and 25 μM non-radioactive glycine. The plates were incubated with gentle shaking and the reaction was stopped by aspiration of the mixture and washing (three times) with ice-cold UB. The cells were lysed with scintillation liquid, shaken 3 hours and the radioactivity in the cells was counted using a scintillation counter.
As usually defined, the IC50 is the concentration needed to halve the response being measured. For the compound `Cc1nc(N2CCN(C(=O)c3cc(S(C)(=O)=O)ccc3O[C@H](C)C(F)(F)F)CC2)sc1C(F)(F)F` [Example 81, [5-Methanesulfonyl-2-((R)-2,2,2-trifluoro-1-methyl-ethoxy)-phenyl]-[4-(4-methyl-5-trifluoromethyl-thiazol-2-yl)-piperazin-1-yl]-methanone], the IC50 came to 0.044 µM.
As for `CC(C)Sc1ccc(S(C)(=O)=O)cc1C(=O)N1CCN(c2ncc(C(F)(F)F)s2)CC1` [Example 84, (2-Isopropylsulfanyl-5-methanesulfonyl-phenyl)-[4-(5-trifluoromethyl-thiazol-2-yl)-piperazin-1-yl]-methanone], the figure is 0.076 µM; as for `C[C@H](Oc1ccc(S(C)(=O)=O)cc1C(=O)N1CCN(c2nnc(C(F)(F)F)s2)CC1)C(F)(F)F` [Example 93, [5-Methanesulfonyl-2-((S)-2,2,2-trifluoro-1-methyl-ethoxy)-phenyl]-[4-(5-trifluoromethyl-[1,3,4]thiadiazol-2-yl)-piperazin-1-yl]-methanone], 0.075 µM; as for `CNS(=O)(=O)c1ccc(OC2CCCC2)c(C(=O)N2CCN(c3ncc(C#N)s3)CC2)c1` [Example 99, 3-[4-(5-Cyano-thiazol-2-yl)-piperazine-1-carbonyl]-4-cyclopentyloxy-N-methyl-benzenesulfonamide], 0.021 µM.
As for `CNS(=O)(=O)c1ccc(OC2CCCC2)c(C(=O)N2CCN(c3nc(-c4ccccc4)ns3)CC2)c1` [Example 100, 4-Cyclopentyloxy-N-methyl-3-[4-(3-phenyl-[1,2,4]thiadiazol-5-yl)-piperazine-1-carbonyl]-benzenesulfonamide], the figure is 0.055 µM.
Take `CNS(=O)(=O)c1ccc(OC2CCCC2)c(C(=O)N2CCN(c3nnc(C(F)(F)F)s3)CC2)c1` [Example 101, 4-Cyclopentyloxy-N-methyl-3-[4-(5-trifluoromethyl-[1,3,4]thiadiazol-2-yl)-piperazine-1-carbonyl]-benzenesulfonamide]: the IC50 was determined as 0.026 µM.
Under `CS(=O)(=O)c1ccc(OCC(F)(F)C(F)(F)F)c(C(=O)N2CCN(c3ncc(C(F)(F)F)s3)CC2)c1` [Example 103, [5-Methanesulfonyl-2-(2,2,3,3,3-pentafluoro-propoxy)-phenyl]-[4-(5-trifluoromethyl-thiazol-2-yl)-piperazin-1-yl]-methanone] stands 0.006 µM.
